Assay results from US9914760B2, “Methods of identifying, isolating and using odorant and aroma receptors” (Firmenich SA, priority 2013, dated 2018).

Key:
Olfr740 = assay: cell-based cAMP assay (HTRF), HEK293T co-transfected with Gαolf; design: species or system mouse; conditions: increasing concentrations; FIGS. 5A-5D
Source text: (§1) The activity of candidate mouse receptors Olfr740 (SEQ ID NO: 1 and SEQ ID NO: 2), Olfr743 (SEQ ID NO: 5 and SEQ ID NO: 6), and Olfr746 (SEQ ID NO: 37 and SEQ ID NO: 38) to both indole and skatole malodors were confirmed in cell-based cAMP assays. In FIGS. 5A and 5B, FLAG Rho-tagged (SEQ ID 18) Olfr743 (SEQ ID NO: 6) and Olfr740 (SEQ ID NO: 2) cDNA sequences were co-transfected with Gαolf (SEQ ID NO: 21) and exposed to increasing concentrations of indole (left) or skatole (right). FIGS. 5C and 5D are repeat experiments showing similar activity of Olfr740 (SEQ ID NO: 2) with Olfr743 (SEQ ID NO: 6) with indole and skatole. In FIG. 5E, the FLAG Rho-tagged (SEQ ID 18) Olfr746 (SEQ ID NO: 38) cDNA sequence was co-transfected with Gαolf (SEQ ID NO: 21) and exposed to increasing concentrations of indole or skatole. Odorant-induced activity was detected by measuring cAMP levels in the cytosol using the HTRF approach (CisBio kit). […] Co-transfection of HEK cells with Gαolf (SEQ ID NO: 21) alone (no receptor) were used as controls for non-specific activity (control). Activity is defined as the baseline corrected HTRF ratios normalized to the highest signal in the experiment. […] All three receptors show specific dose dependent activity to the malodor compounds and, as such, validate the process for identifying receptors for these compounds. Mouse receptors Olfr740 (SEQ ID NO: 1 and SEQ ID NO: 2) and Olfr743 (SEQ ID NO: 5 and SEQ ID NO: 6) were identified from isolated olfactory neurons that responded to both indole and skatole. Mouse receptor Olfr746 (SEQ ID NO: 37 and SEQ ID NO: 38) was identified in silico by database mining using Olfr740 (SEQ ID NO: 2) and Olfr743 (SEQ ID NO: 6) as query sequences. The receptors are modified at their N-terminus with the FLAG tag and the first 20 amino acids of the bovine rhodopsin receptor (SEQ ID 18), transiently expressed in HEK 293T cells, and stimulated separately with indole and skatole to confirm their identity as bona fide indole/skatole receptors. Co-expression of the human G alpha subunit Gαolf (SEQ ID NO: 21) activates the Gs transduction pathway that leads to an internal cAMP increase upon binding to the appropriate ligand.

Olfr746 = assay: as above; design: species or system mouse; conditions: increasing concentrations; FIG. 5E
Source text: as §1

Olfr743 = Olfr743 (Mus musculus, UniProt L7N1Y2); assay: as above; conditions: for receptor activity (cAMP, HTRF): increasing concentrations, FIGS. 5A-5D
Source text: as §1
Once identified using the procedure outlined herein, the resulting malodor receptor cell lines can be used to screen chemical libraries for compounds that modulate their activity and possibly human perception. This experiment was performed under the same conditions as in Example 4. Cells transfected with Rho-tagged (SEQ ID NO: 18) Olfr743 (SEQ ID NO: 6) were exposed to increasing concentrations of indole in the presence or absence of 300 μM 2-actetonaphthone. […] In the presence of the antagonist compound, a rightward shift of in the dose-response curve is observed resulting in a 4 fold increase in the EC50 to indole. Activity is defined as the baseline corrected HTRF ratios normalized to the highest signal in the experiment.

Olfr736 = assay: in vitro receptor response to indole or skatole; type: cell-based, mouse; conditions: likely lack of cell surface expression
Source text: (§2) In another aspect, human receptor OR52N2 (SEQ ID NO: 11 and SEQ ID NO: 12) was identified because of its sequence similarity to mouse Olfr665 (SEQ ID NO: 9 and SEQ ID NO: 10), an indole/skatole receptor isolated from olfactory neurons responding to both indole and skatole (Example 6). Human receptor OR11G2 (SEQ ID NO: 13 and SEQ ID NO: 14) was identified because of its sequence similarity to mouse Olfr740 (SEQ ID NO: 1 and SEQ ID NO: 2), an indole/skatole receptor isolated from olfactory neurons responding to both indole and skatole (Example 6). Human receptor OR5AC2 (SEQ ID NO: 75 and SEQ ID NO: 76) was identified because of its sequence similarity to mouse Olfr207 (SEQ ID NO: 77 and SEQ ID NO: 78), an indole/skatole receptor isolated from olfactory neurons responding to both indole and skatole (Example 6). Human receptor OR4C15 (SEQ ID NO: 79 and SEQ ID NO: 80) was identified because of its sequence similarity to mouse Olfr1211 (SEQ ID NO: 81 and SEQ ID NO: 82), an indole/skatole receptor isolated from olfactory neurons responding to both indole and skatole (Example 6). Human receptor OR8S1 (SEQ ID NO: 83 and SEQ ID NO: 84) was identified because of its sequence similarity to mouse Olfr257 (SEQ ID NO: 85 and SEQ ID NO: 86), an indole/skatole receptor isolated from olfactory neurons responding to both indole and skatole (Example 6). Mouse receptor Olfr665 (SEQ ID NO: 9 and SEQ ID NO: 10) was identified directly from NGS data from isolated olfactory neurons responding to both indole and skatole (Example 6). Mouse receptor Olfr740 (SEQ ID NO: 1 and SEQ ID NO: 2) was identified directly from NGS data from isolated olfactory neurons responding to both indole and skatole (Example 6).

Olfr747 = assay: in vitro receptor response to indole or skatole; type: cell-based, mouse; conditions: despite proper cell surface expression (immunostaining)
Source text: as §2

Olfr748 = assay: in vitro receptor response to indole or skatole; type: cell-based, mouse; conditions: despite proper cell surface expression (immunostaining)
Source text: as §2

Olfr743, sequence (P38405 2-381): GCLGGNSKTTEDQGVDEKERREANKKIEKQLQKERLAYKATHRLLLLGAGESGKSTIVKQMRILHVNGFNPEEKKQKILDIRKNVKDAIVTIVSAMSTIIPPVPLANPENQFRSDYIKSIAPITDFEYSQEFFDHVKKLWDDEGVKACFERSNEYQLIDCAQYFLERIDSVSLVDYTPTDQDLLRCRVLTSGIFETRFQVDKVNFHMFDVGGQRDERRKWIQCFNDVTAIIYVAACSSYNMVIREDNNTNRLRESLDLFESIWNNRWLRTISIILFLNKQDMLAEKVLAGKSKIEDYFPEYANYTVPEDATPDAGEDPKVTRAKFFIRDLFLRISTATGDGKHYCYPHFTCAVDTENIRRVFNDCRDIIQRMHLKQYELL
Olfr743, sequence (L7N1Y2 entry or part of it): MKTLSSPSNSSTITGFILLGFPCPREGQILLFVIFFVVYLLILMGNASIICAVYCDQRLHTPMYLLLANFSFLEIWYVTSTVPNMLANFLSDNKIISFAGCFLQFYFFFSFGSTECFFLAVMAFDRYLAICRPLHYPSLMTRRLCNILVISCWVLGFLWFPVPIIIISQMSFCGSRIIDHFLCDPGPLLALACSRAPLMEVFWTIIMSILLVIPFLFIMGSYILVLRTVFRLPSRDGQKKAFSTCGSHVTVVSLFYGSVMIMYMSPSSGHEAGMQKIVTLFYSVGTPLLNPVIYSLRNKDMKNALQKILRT

| Structure (SMILES) | receptor activity (cAMP, HTRF) (Olfr740) | receptor activity (cAMP, HTRF) (Olfr746) | receptor activity (cAMP, HTRF) (Olfr743) | receptor response (Olfr736) | receptor response (Olfr747) | receptor response (Olfr748) | EC50 (Olfr743; EC50, indole alone, absence of 2-acetonaphthone) | EC50 (Olfr743; EC50, indole in the presence of 300 μM 2-acetonaphthone) |
| --- | --- | --- | --- | --- | --- | --- | --- | --- |
| Cc1c[nH]c2ccccc12 [skatole, 3-methyl indole] | dose-dependent increase of receptor activity | dose-dependent increase of receptor activity | dose-dependent increase of receptor activity | failed to respond | failed to respond | failed to respond |  |  |
| c1ccc2[nH]ccc2c1 [indole] | dose-dependent increase of receptor activity | dose-dependent increase of receptor activity | dose-dependent increase of receptor activity | failed to respond | failed to respond | failed to respond | 54 µM | 206 µM |
